Experimental data reported in PMC8234803, “In Vitro Metabolism of Six C-Glycosidic Flavonoids from Passiflora incarnata L” (International Journal of Molecular Sciences, 2021).
Entries after “also recorded” stand apart in the source; their conditions may differ.

What was measured:
[1] = Stability testing in test buffer (HBSS pH 6.0) under assay conditions, HPLC-DAD; format: physicochemical; conditions: 10 µM in HBSS pH 6.0, 37 °C, 5% CO2
Description: To guarantee the stability of all test substances during the metabolism assay on Caco-2 cells, they were incubated in the test buffer under assay conditions. Test samples were collected each hour for 5 h and were measured via HPLC-DAD.
To ensure stability during the Caco-2 metabolism experiments, all test substances were dissolved in DMSO to a concentration of 20 mM and diluted to 10 µM in an appropriate volume of HBSS (pH 6.0), resulting in a DMSO concentration of less than 1%. The test solution (1 mL) was aliquoted into a 12-well Transwell® plate and incubated for 5 h in an atmosphere of 5% CO2 and 90% relative humidity at 37 °C. Test samples (100 µL) were collected after t = 0, 1, 2, 3, 4, and 5 h and measured via HPLC-DAD. The peak area of the test substance at time t = 0 h was defined as 100%, and all other peak areas were related to calculate the proportional stability. The stability was calculated as % = area/area0 × 100. Stability testing was performed on three independent days with freshly prepared solutions (n = 3).
The system consisted of the following: Elite LaChrom with an L2200 autosampler, L2130 pump, L2350 column oven, L2444 DAD, and EZChrom Elite 3.1.7 software (Hitachi, Tokyo, Japan); column: Kinetex® Biphenyl, 100 Å, 250-4.6 mm (5 µm, same material precolumn; Phenomenex, Torrance, CA, USA); injection volume 30 µL; oven temp.: 25 °C; autosampler temp.: 10 °C; detection wavelength: 340 nm; flow: 1.2 mL/min; A = H2O + 0.1% TFA, B = acetonitrile + 0.1% TFA; gradient: 0–2 min 10% B, 2–10 min 10% B → 100% B, 10–11 min 100% B → 10% B, 11–15 min 10% B.

[2] = MTT assay under metabolic conditions (cell viability); format: cell-based, human; conditions: human, 5 h incubation, read-out: Viability of Caco-2 cells; for viability at 5 h, 10 µM: Caco-2, 10 µM in HBSS (pH 6.0); for viability at 5 h, 100 µM: Caco-2, 100 µM in HBSS (pH 6.0)
Description: (§1) All six substances were tested in five different dilutions in HBSS (pH 6.0). The determined viability values of O, IO, S, IS, V, and IV are listed in the Supplementary Materials (Figure S2).
(§2) Caco-2 cells in the logarithmic growth phase were seeded in 96-well plates at a density of 3 × 10^4 cells/well and incubated at 37 °C in an atmosphere of 5% CO2 and constant moisture in an incubator. After 24 h, the cell culture medium was removed, and 100 µL of HBSS solution (negative control), 0.5% DMSO in HBSS solution (solvent control), or flavonoid samples in HBSS solution (6 flavonoids at concentrations of 10, 25, 50, 75, and 100 µM) was applied in quintuplicate and incubated for 5 h. Afterwards, the HBSS solutions were removed and replaced with an MTT solution in DMEM (0.4 mg/mL) and incubated for another 3 h at 37 °C. Then, the MTT solution was discarded, and the cells were fixed with a 10% SDS solution in PBS and stored at room temperature in the dark. After 24 h, the absorbance was measured on a Tecan microplate reader (Tecan Trading AG, Switzerland) at 560 nm. The viability rate was calculated as % = A/A0 × 100, with A as the average absorbance value of the treatment and solvent control groups and A0 as the average absorbance value of the negative control group. The assay was performed three times in pentaplicate.
(§3) The human colon adenocarcinoma cell line Caco-2 was obtained from the ATCC (American Type Culture Collection, Manassas, VA, USA). The cell line was determined to be free of mycoplasma contamination by PCR and culture from GATC Biotech AG (Konstanz, Germany). The cells were cultured in DMEM supplemented with 10% (v/v) FBS, 1% (v/v) NEAA, and 1% (v/v) antibiotics (penicillin/streptomycin) in an atmosphere of 5% CO2 and 90% relative humidity at 37 °C. The culture medium was replaced every 3 days, and the cells were split 1:5 using trypsin-EDTA once 90% confluence was obtained.

Caco-2 cells = experiment: as above; format: cell-based, human; conditions: 10, 25, 50, 75, 100 µM in HBSS (pH 6.0), 5 h incubation
Description: as §1, §2, §3

Caco-2 cell monolayer = experiment: Caco-2 monolayer metabolism experiment, metabolites identified via UHPLC-DAD-MS(/MS); format: in vitro ADME, human; conditions: for Extent of metabolism (in words) / Phase II conjugates containing glucuronic acid or sulfates / Phase II metabolites with glucuronic acid or sulfates: 3 and 5 h; for Extent of phase I and II metabolism (in words): independent of incubation time and concentration
Description: To obtain information on the in vitro metabolism of the six tested C-glycosidic flavonoids in the intestine, experiments were carried out using the Caco-2 monolayer model (Figure 2). Metabolite profiles were characterized at two different concentrations (10 and 100 µM; n = 3) and after two different incubation times (3 or 5 h; n = 3) in order to determine the influence of concentration and time on the metabolism reactions that occurred. Furthermore, to analyze the distribution of the observed metabolites, samples were collected from the cell lysate and the apical and basolateral compartments. All samples of the metabolism experiments using the Caco-2 cell monolayer were analyzed using UHPLC-DAD-MS and UHPLC-DAD-MS/MS. Metabolites were identified by libraries that were prepared for each compound (Tables S1–S6). The O and IO libraries contained 67 metabolites (Tables S1 and S2), the S and IS libraries contained 106 metabolites (Tables S3 and S4), and the V and IV libraries contained 71 possible metabolites (Tables S5 and S6).
To form a confluent and differentiated monolayer, cells at passages 16–45 were seeded into the inserts of 12-well Transwell® plates at a density of 3.0 × 10^5 cells/cm^2. Afterwards, the culture medium was replaced every day, and the metabolism experiment was performed 21 days after seeding. The apical and basolateral compartments contained 0.5 and 1.5 mL of cell culture medium, respectively.
On day 21, the cell culture medium was removed from the apical and basolateral compartments, and the Caco-2 cell monolayer was washed two times with prewarmed HBSS. The Transwell® plates containing HBSS were incubated at 37 °C for 15 min to measure the transepithelial electrical resistance (TEER) value. The integrity of the cell monolayers was evaluated by TEER values between the apical and basolateral sides with the Evohm2 system (World Precision Instruments, Sarasota, FL, USA). The cell inserts were only used for the metabolism experiments if the resistance exceeded 350 Ω/cm^2. The six test substances were dissolved in DMSO to a stock solution of 20 mM. The HBSS was adjusted to pH 6.0 and 7.4 with 1 M HCl. Afterwards, the stock solutions were diluted to 10 or 100 µM in an appropriate volume of HBSS (pH 6.0) to obtain a DMSO concentration of <1%. The test solutions were added to the apical side (0.5 mL), while the basolateral side was filled with 1.5 mL of HBSS (pH 7.4). The Transwell® plates were incubated at 37 °C for 3 or 5 h, respectively. After this period, solutions from the apical and basolateral compartments were collected in separate tubes, washed twice with 500 µL of HBSS, and then collected again. The samples were lyophilized and stored at −20 °C until they were measured using UHPLC-DAD-MS. After the experiment, Transwell® inserts were apically (0.5 mL) and basolaterally (1.5 mL) filled with HBSS and warmed to 37 °C for 20 min. Then, the TEER values were measured to guarantee the integrity of the monolayer during the experiment. The experiment was performed in triplicate for each substance, concentration, and incubation time.
After the metabolism experiment, cell monolayers were washed twice with PBS and incubated with 200 µL of trypsin-EDTA for 10 min at 37 °C in an atmosphere of 5% CO2 and constant humidity in the incubator. The cells were removed from the well by pipetting up and down, and were collected in a tube. The well was washed twice with PBS (1 mL), and the wash solution was also collected in the corresponding tube. The mixture was centrifuged (1000× g rpm, 5 min), and the supernatant was discarded.

[3] = initial concentration 10 µM, 3 h, apical compartment
[4] = initial concentration 10 µM, 5 h, apical compartment
[5] = initial concentration 100 µM, 3 h, apical compartment
[6] = initial concentration 100 µM, 3 h, basolateral compartment
[7] = initial concentration 100 µM, 5 h, apical compartment

Stability (content relative to t = 0 h) ([1]; after 3 h of incubation) | Stability (content relative to t = 0 h) ([1]; after 5 h incubation) | Possible metabolite (phase II metabolite identified by MS/MS fragmentation and comparison with reference compound after enzymatic hydrolysis) (Caco-2 cell monolayer; glucuronidase/sulfatase cleavage, UHPLC-DAD-MS/MS) | Possible metabolite detected (Caco-2 cell monolayer; [6]) | Molecule | viability at 5 h, 10 µM [2] | viability at 5 h, 100 µM [2] | Effect on the viability of Caco-2 cells (in words) (Caco-2 cells) | Extent of metabolism (in words) (Caco-2 cell monolayer; 10 µM) | Metabolites of the aglycones (cleavage of the C–C glycosidic bond) (Caco-2 cell monolayer; 100 µM approach) | Extent of metabolism (in words) (Caco-2 cell monolayer; 100 µM) | Extent of phase I and II metabolism (in words) (Caco-2 cell monolayer) | Possible metabolite detected (Caco-2 cell monolayer; [3]) | Possible metabolite detected (Caco-2 cell monolayer; [4]) | Possible metabolite detected (Caco-2 cell monolayer; [5]) | Possible metabolite detected (Caco-2 cell monolayer; [7]) | Phase II conjugates containing glucuronic acid or sulfates (Caco-2 cell monolayer; 10 µM) | Phase II metabolites with glucuronic acid or sulfates (Caco-2 cell monolayer; 100 µM)
96% | 95% | Methoxy-luteolin-sulfate | Hydroxy-dimethoxy-isovitexin | O=c1cc(-c2ccc(O)cc2)oc2cc(O)c([C@@H]3O[C@H](CO)[C@@H](O)[C@H](O)[C@H]3O)c(O)c12 [IV, isovitexin] | 92% | 82% | slight, concentration-dependent reductions | broader ranges of phase I and II metabolites | metabolites of the corresponding aglycones apigenin and luteolin were also detected | extensive metabolism | highly metabolized in phase I and II reactions | Hydroxy-methoxy-isovitexin; also recorded: Hydroxy-apigenin-sulfate; also recorded: Hydroxy-methoxy-apigenin | Hydroxy-methoxy-isovitexin; also recorded: Hydroxy-dimethoxy-isovitexin; also recorded: Hydroxy-apigenin-sulfate | Hydroxy-apigenin-sulfate; also recorded: Hydroxy-dimethoxy-isovitexin; also recorded: Hydroxy-methoxy-apigenin; also recorded: Hydroxy-methoxy-isovitexin | Hydroxy-methoxy-isovitexin; also recorded: Hydroxy-apigenin-sulfate; also recorded: Hydroxy-dimethoxy-isovitexin; also recorded: Hydroxy-methoxy-apigenin | – | –
approximately 100% | – | – | Hydroxy-methoxy-schaftoside | schaftoside | – | – | no significant effects at any concentration | very limited metabolism | – | a few hydroxylated and methoxylated derivatives | poorly metabolized in phase I and II reactions | Hydroxy-methoxy-schaftoside | Hydroxy-methoxy-schaftoside | Hydroxy-methoxy-schaftoside | Hydroxy-methoxy-schaftoside | No phase II conjugates containing glucuronic acid or sulfates were detectable | lacked the presence of phase II metabolites with glucuronic acid or sulfates

Molecule | Stability (content relative to t = 0 h) ([1]; after 3 h of incubation) | Stability (content relative to t = 0 h) ([1]; after 5 h incubation) | Possible metabolite (phase II metabolite identified by MS/MS fragmentation and comparison with reference compound after enzymatic hydrolysis) (Caco-2 cell monolayer; glucuronidase/sulfatase cleavage, UHPLC-DAD-MS/MS) | Possible metabolite detected (Caco-2 cell monolayer; [6]) | viability at 5 h, 10 µM [2] | viability at 5 h, 100 µM [2] | Effect on the viability of Caco-2 cells (in words) (Caco-2 cells) | Extent of metabolism (in words) (Caco-2 cell monolayer; 10 µM) | Metabolites of the aglycones (cleavage of the C–C glycosidic bond) (Caco-2 cell monolayer; 100 µM approach) | Extent of metabolism (in words) (Caco-2 cell monolayer; 100 µM) | Extent of phase I and II metabolism (in words) (Caco-2 cell monolayer) | Possible metabolite detected (Caco-2 cell monolayer; [3]) | Possible metabolite detected (Caco-2 cell monolayer; [4]) | Possible metabolite detected (Caco-2 cell monolayer; [5]) | Possible metabolite detected (Caco-2 cell monolayer; [7]) | Phase II conjugates containing glucuronic acid or sulfates (Caco-2 cell monolayer; 10 µM) | Phase II metabolites with glucuronic acid or sulfates (Caco-2 cell monolayer; 100 µM)
O=c1cc(-c2ccc(O)cc2)oc2c([C@@H]3O[C@H](CO)[C@@H](O)[C@H](O)[C@H]3O)c(O)cc(O)c12 [V, vitexin] | approximately 100% | – | – | Hydroxy-methoxy-vitexin | 92% | 83% | slight, concentration-dependent reductions | very limited metabolism | – | a few hydroxylated and methoxylated derivatives | poorly metabolized in phase I and II reactions | – | – | Hydroxy-methoxy-vitexin | Hydroxy-vitexin | No phase II conjugates containing glucuronic acid or sulfates were detectable | lacked the presence of phase II metabolites with glucuronic acid or sulfates
